Data set [1] relates to D-2 dopamine receptor. The settings on record: cited from earlier work.
Data set [2] addresses D-2 dopamine receptor. The settings on record: cited from earlier work; for Kd: Table 1, in vitro binding; for affinity and selectivity to the D-2 dopamine receptor: striatal membrane preparation; for affinity for D-2 dopamine receptor / nonspecific binding: rat striatum tissue preparations.
The test system of data set [3] is CNS D-2 dopamine receptor. The settings on record: cited from earlier work.
Data set [4] has as its target D-2 dopamine receptor. The settings on record: read-out: IC50 against [H^3]spiperone binding of rat striatal tissue preparation; Table 1 footnote; cited from earlier work.
Data set [5] addresses T1, dopamine D-2 receptor (Rattus norvegicus, UniProt P61169).
T1 construct: Striatal tissues were excised, pooled and homogenized in 100 volumes (w/v) of ice-cold Tris-HCl buffer; from tissue; host or cells: rat striatum (male Sprague-Dawley), twice-centrifuged membrane homogenate
Briefly: Competition binding using [^125 I]IBF, rat striatal membranes. The settings on record: [^125 I]IBF 0.15-0.30 nM, mean ± SEM of three to five determinations. Here is the method:
*0.15-0.30 nM [^125 I]IBF was incubated in the presence of the
(§1) indicated compounds in 7-11 concentrations and of membrane preparation
(§2) from rat striatum. Each value represents the mean ± SEM of three to
(§3) Male Sprague-Dawley rats (200-250 g) were decapitated, and the brains were removed and placed in ice. Striatal tissues were excised, pooled and homogenized in 100 volumes (w/v) of ice-cold Tris-HCl buffer (50 mM), pH 7.4. The homogenates were centrifuged at 20,000× g for 20 min. The resultant pellets were rehomogenized in the same buffer and centrifuged again. The final pellets were resuspended in assay buffer containing: 50 mM Tris buffer pH 7.4, 120 mM NaCl, 5 mM KCl, 2 mM CaCl2 and 1 mM MgCl2 and kept at -20° C. for the following binding assay.
(§4) The binding assays were performed by incubating 50 μl of tissue preparations containing 40-60 μg of protein with appropriate amounts of l-125 labeled ligand and competitors in a total volume of 0.2 ml of the assay buffer. After an incubation period of 15 min at 37° C. (with stirring), the samples were rapidly filtered in the cell harvester (Brandel M-24R) under vacuum through Whatman GF/B glass fiber filters pretreated with 0.2% protamine base and washed with 3×5 ml of cold (4° C.) 50 mM Tris-HCl buffer, pH 7.4. […] The filters were counted in a gamma counter (Beckman 5500) at an efficiency of 70%.

Another data set addresses T2, D-2 dopamine receptors (Rattus norvegicus, UniProt P61169).
T2 construct: Striatal tissues were excised, pooled and homogenized in 100 volumes (w/v) of ice-cold Tris-HCl buffer; from tissue; host or cells: rat striatum (male Sprague-Dawley), twice-centrifuged membrane homogenate
As to the kind of experiment: Competition binding using [^125 I]IBZM, rat striatal membranes. As to the method: *0.15-0.4 nM [^125 I]IBZM was incubated in the presence of the
as §1, §2, §3, §4

The target in data set [6] is T1, dopamine D-2 receptor. Briefly: Saturation binding of [^125 I]IBF to rat striatal homogenate in vitro. The settings on record: saturation curve, FIG. 1. As to the method:
as §3, §4

Data set [7] relates to D-2 dopamine receptor. The settings on record: cited from earlier work; for nonspecific binding: in vitro.
Data set [8] in a line: Biodistribution in rats after IV injection. The class given is in vivo, rat. The settings on record: IV, average of 3 rats ± SD. As to the method: Male Sprague Dawley rats (225-300 g), which were allowed free access to food and water, were used for in vivo biodistribution study. While under halothane anesthesia, 0.2 ml of a saline solution containing [^125 l]IBF, 21, (8-10 μCi) was injected directly into the femoral vein, and the rats were sacrificed at various time points postinjection by cardiac excision under halothane anesthesia. The organs of interest were removed, weighed and the radioactivity was counted using a Beckman gamma automatic counter (Model 4000). The percent dose per organ was calculated by a comparison of the tissue counts to suitably diluted aliquots of the injected material. Total activities of blood and muscle were calculated assuming that they are 7% and 40% of total body weight, respectively.

Setting [9] is: N-methylspiperone imaging agent, determined earlier.
[10] abbreviates: [^125 I]IBZM 0.15-0.4 nM, mean ± SEM of three to five determinations.

Read-outs that look alike come from different tables or passages of the source.

T1 sequence (P61169 whole entry): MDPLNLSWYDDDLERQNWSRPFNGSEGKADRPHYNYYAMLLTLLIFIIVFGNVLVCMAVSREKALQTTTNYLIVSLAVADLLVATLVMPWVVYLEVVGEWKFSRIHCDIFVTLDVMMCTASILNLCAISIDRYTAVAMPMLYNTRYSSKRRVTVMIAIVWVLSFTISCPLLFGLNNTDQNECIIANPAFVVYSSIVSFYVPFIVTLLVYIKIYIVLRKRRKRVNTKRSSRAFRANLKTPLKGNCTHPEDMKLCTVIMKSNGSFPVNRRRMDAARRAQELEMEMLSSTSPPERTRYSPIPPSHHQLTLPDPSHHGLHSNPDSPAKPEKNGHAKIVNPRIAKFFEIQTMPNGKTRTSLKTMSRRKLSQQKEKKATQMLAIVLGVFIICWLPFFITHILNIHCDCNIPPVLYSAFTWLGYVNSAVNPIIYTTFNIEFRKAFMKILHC
T2 sequence (P61169 whole entry): as above

For the molecule `CCN1CCC[C@H]1CNC(=O)c1c(OC)ccc([123I])c1O` [S-[^123 I]IBZM], in the data set with D-2 dopamine receptor [1] (immediately after intravenous injection, humans), the “basal ganglia uptake, planar imaging” value is on record as “high concentration in basal ganglia of the brain”. The “basal ganglia uptake, SPECT” value in the data set on D-2 dopamine receptor [1] (normal human brain, 1 hour postinjection) is given as “highly specific uptake in the basal ganglia of the brain”.
A word on the Kd: it is the constant that tells how readily two partners part at equilibrium. Regarding `COc1cc(N=[N+]=[N-])c(I)cc1C(=O)NC1CCN(Cc2ccccc2)CC1` [Iodoazidoclebopride], at D-2 dopamine receptor [2], the Kd is 14 nM; the “affinity and selectivity to the D-2 dopamine receptor” value (“affinity and selectivity” for short) is “very high affinity and selectivity”.
For the molecule `CN1CN(c2ccccc2)C2(CCN(CCCC(=O)c3ccc(F)cc3)CC2)C1=O` [N-methylspiperone], in data set [3] (setting [9]), the Bmax was 16.6 pmol/g and the dissociation constant Kd was 0.097 nM.
For the molecule `CCN1CCC[C@H]1CNC(=O)c1cc(I)ccc1OC` [Iodopride], the “affinity and selectivity” value in the data set with D-2 dopamine receptor [2] was “very high affinity and selectivity”. Besides, at D-2 dopamine receptor [4], the IC50 was 3 nM.
In the case of `CCN1CCC[C@H]1CNC(=O)c1c(O)cccc1OC` [BZM], on D-2 dopamine receptor [2], the dissociation constant (Kd) is 31.1 nM.
In general, Ki refers to a measure of affinity in units of concentration, obtained from inhibition or displacement. For `CCN1CCC[C@H]1CNC(=O)c1c(OC)ccc(I)c1O` [IBZM], at D-2 dopamine receptor [2], the dissociation constant Kd was 0.43 nM; the “affinity and selectivity” value was “very high affinity and selectivity”. Further, at dopamine D-2 receptor [5], the inhibition constant Ki is 0.261 ± 0.018 nM.
For the molecule `CCN1CCC[C@H]1CNC(=O)c1cc2cc(Br)ccc2cc1OC` [Compound 6, S-(-)-7-Bromo-3-methoxy-N[(1-ethyl-2-pyrrolidinyl)methyl]naphthyl-2-carboxamide], the Ki on D-2 dopamine receptors (setting [10]) was 82 ± 12 nM; on D-2 dopamine receptors ([^125 I]IBZM binding), 82 nM.
For `O=C(c1ccc(F)cc1)C1CCN(CCn2c(=O)[nH]c3ccccc3c2=O)CC1` [Ketanserin], at dopamine D-2 receptor [5], affinity was put at a Ki of 491 ± 49 nM.
`NC1CCc2cc(O)c(O)cc2C1` (single isomer, unassigned; (+)) [(+) ADTN,6,7]: at dopamine D-2 receptor [5], affinity was put at a Ki of 65.7 ± 13 nM. This Ki lies about 7.5-fold lower than the previous one.
On to `CCN1CCC[C@H]1CNC(=O)c1c(O)c(Cl)cc(Cl)c1O[11CH3]` (racemic) [[^11 C]raclopride], for which the “affinity constant Kd” value in data set [3] (living human brain, PET, equilibrium model and Scatchard plots) is 7.1 nM. Besides, in data set [3] (living human brain, PET), the Bmax is 15 pmol/mL and the “ratio of specific striatal to nonspecific cerebellar binding” value is reported as “high ratio”.
On to `CCN1CCC[C@H]1CNC(=O)c1cc(I)cc2c1OCC2` [Compound 21, 5-Iodo-7-N-[(1-ethyl-2-pyrrolidinyl)methyl]carboxamido-2,3-dihydrobenzofuran], for which the inhibitory constant (Ki) was 0.33 ± 0.02 nM on D-2 dopamine receptors (setting [10]), 0.23 nM on D-2 dopamine receptors ([^125 I]IBZM binding) and 0.085 ± 0.01 nM on dopamine D-2 receptor [5]. Also, the “times more effective than the bromine atom for increasing competitive binding affinity” value at D-2 dopamine receptors (iodo (21) vs bromo (19)) is listed as “sixteen”. Also, the “nonspecific binding” value at dopamine D-2 receptor [6] is listed as “low nonspecific binding”.
As to `O=C(CCCN1CCC2(CC1)C(=O)NCN2c1ccccc1)c1ccc(F)cc1I` [2'-ISP], in the data set with D-2 dopamine receptor [7], the “D-2 specificity” value is on record as “excellent D-2 specificity” and the nonspecific binding is given as 40%. Also, the Kd on D-2 dopamine receptor [7] (rat striatum) is 0.25 nM.
With `CCN1CCC[C@H]1CNC(=O)c1cc2ccccc2cc1OC` [Compound 11, (S)-(-)-3-Methoxy-N-[(1-ethyl-2-pyrrolidinyl)methyl]naphthyl-2-carboxamide], the values for the Ki on D-2 dopamine receptors (setting [10]) and at D-2 dopamine receptors ([^125 I]IBZM binding) were 30 ± 4.2 nM and 30 nM, respectively.
For `CCN1CCC[C@H]1CNC(=O)c1cccc2c1OCC2` [Compound 23, 7-N-[(1-ethyl-2-pyrrolidinyl)methyl]carboxamido-2,3-dihydrobenzofuran], in that order: 135 ± 22 nM and 135 nM.
In the case of `CCN1CCC[C@H]1CNC(=O)c1c(O)c(Cl)cc(Cl)c1OC` [Raclopride], at D-2 dopamine receptor [2], the dissociation constant Kd was 1.1 nM, the “affinity for D-2 dopamine receptor” value is “high affinity” and the “nonspecific binding” value is given as “low nonspecific binding”.
Regarding `CCN1CCC[C@H]1CNC(=O)c1cc2cc(Br)ccc2cc1O` [Comparative Cpd. A, reference compound], the Ki on D-2 dopamine receptors (setting [10]) stood at 280 ± 47 nM.
As to `CCc1cc(Cl)c(OC)c(C(=O)NC[C@@H]2CCCN2CC)c1O` [Eticlopride], at D-2 dopamine receptor [2], the Kd was 0.17 nM, the “affinity for D-2 dopamine receptor” value is “high affinity” and the “nonspecific binding” value is “low nonspecific binding”.
Molecule `CCN1CCC[C@H]1CNC(=O)c1c(OC)ccc([125I])c1O` [[^125 I]IBZM, reference compound] gave a Brain uptake in data set [8] (2 min) of 2.87 % Dose/Organ. This molecule displayed a Thyroid uptake in data set [8] (60 min) of 0.1 % Dose/Organ. Moreover, in the data set on D-2 dopamine receptor [7], the nonspecific binding is 5%.
Turning to `CCN1CCC[C@H]1CNC(=O)c1c(OC)ccc2ccccc12` [Comparative Cpd. B, 2-Methoxy-N-[(1-ethyl-2-pyrrolidinyl)methyl]naphthyl-1-carboxamide, reference compound], on D-2 dopamine receptors (setting [10]), the inhibition constant (Ki) is 507 ± 29 nM.
With `CCN1CCC[C@H]1CNC(=O)c1cc2cc(I)ccc2cc1OC` [Compound 8, (S)-(-)-7-Iodo-3-methoxy-N-[(1-ethyl-2-pyrrolidinyl)methyl]naphthyl-2-carboxamide], the Ki was determined as 168 ± 13 nM on D-2 dopamine receptors (setting [10]) and 168 nM at D-2 dopamine receptors ([^125 I]IBZM binding).
